In one series the target is T1, Human EDG-1 (Homo sapiens, UniProt P21453).
T1 construct: expressed in transfected cells; host or cells: CHO cells
Kind of series: Agonistic activity against EDG by monitoring changes in intracellular calcium ion [Ca^2+]i concentration. In kind it is cell-based. The settings on record: Human EDG-1 overexpressing CHO cells; read-out: EC50 (increase in intracellular calcium ion concentration). Here is the method: Human EDG-1, EDG-3, EDG-5, or EDG-8 gene overexpressing CHO cells were cultured in Ham's F12 medium (manufactured by GibcoBRL) containing 10% FBS (fetal bovine serum), penicillin/streptomycin, and blasticidin (5 μg/ml). The cultured cells were incubated in a 5 μM Fura2-AM solution (Ham's F12 medium containing 10% of FBS, 20 mM HEPES buffer (pH7.4), and 2.5 mM probenecid) at 37° C. for 60 minutes. After washing once with Hanks solution containing 20 mM HEPES buffer (pH7.4) and 2.5 mM probenecid, the plate was soaked in the same solution. Then, the plate was set on a fluorescent drug screening system (FDSS 6000; Hamamatsu Photonics K. K.) and the intracellular calcium ion concentration was measured without stimulation for 30 seconds. A test compound (final concentration: 1 nM to 10 μM, dimethylsulfoxide (DMSO) solution) was added and S1P (final concentration: 100 nM) was added 5 minutes thereafter. Then, the increase in the intracellular calcium ion concentration was measured before and after the addition of S1P at intervals of 3 seconds (excitation wavelength: 340 nm and 380 nm, fluorescence wavelength: 500 nm).
The agonistic activity of the compound against each EDG was determined by using the peak value due to S1P-stimulation in a well containing DMSO as a substitute for the evaluated compound as a control value (A), comparing the value […] the addition of the evaluated compound with the increased value (B) in the fluorescent ratio after the addition, and calculating the increase ratio (%) in the intracellular calcium ion [Ca^2+]i concentration as: increase ratio (%)=(B/A)×100. Increase ratios of the compound at individual concentrations were determined and the EC50 value was calculated.
On the technique in general: Calcium flux is commonly read through the fluorescence of an indicator in the cells.

Another series relates to heart rate. Kind of series: Evaluation of cardiotoxicity (bradycardia). To be noted: rabbits, intravenously administered, dose of 0.01 mg/kg. In kind it is in vivo. An excerpt:
A catheter was inserted into the jugular vein and carotid artery (or the femoral vein and femoral artery) of mammals (e.g., SD rat and a rabbit). The tip of the arterial cannula was connected to a pressure transducer (DX-100, manufactured by NIHON KOHDEN CORP.), thereby measuring blood pressure through a strain pressure amplifier (AP-641G, manufactured by NIHON KOHDEN CORP.) and measuring heart rate through an instantaneous heart rate measuring unit (AT-601G, manufactured by NIHON KOHDEN CORP.), respectively. Alternatively, heart rate was measured with an electrocardiogram. Under anesthesia or under awareness after arousal was induced, the test compound was administered intravenously or administered orally. Then, changes in blood pressure and heart rate were measured.

The next series deals with lymphocyte in blood. Put plainly: Counting the number of lymphocyte in blood after oral administration. To be noted: Mus musculus, 24 hours after the administration, read-out: ED50 (dose required for lowering the blood cell count to 50%). It counts as in vivo, male BALB/c mice or male Sprague-Dawley rats. The procedure:
Test compounds were orally administered to male BALB/c mice or male Sprague-Dawley rats (Charles River Laboratories, Japan, Inc., 6-week-old at the time of use). 4 to 72 hours after the administration, the blood was collected from the aorta abdominalis under ether anesthesia. The number of the total leucocyte count, the lymphocyte count, the neutrophil count, the erythrocyte count, the platelet count in blood and the hematocrit value were measured with a multipurpose automatic blood cell counter (SF-3000, manufactured by Sysmex Corporation). Evaluation was made by setting the average blood cell count in a vehicle-administered group (vehicle group) as 100% and calculating the percentage of vehicle from the average blood cell count of each test compound-administered group.

Series [1] has as its system experimental allergic encephalomyelitis. Kind of series: Experimental allergic encephalomyelitis (EAE) model, Case 1: administration from the day of sensitization. It counts as in vivo, Female LEW/CrlCrlj rats. The settings on record: from the day of sensitization to Day 19. The procedure:
(§1) Killed Mycobacterium tuberculosis (M. tuberculosis H37 Ra, Difco, Cat No. 231141) was suspended in distilled water for injection to dissolve MBP (Myelin basic protein, SIGMA, Cat No. M-2295) (Killed Mycobacteriumtuberculosis: 1000 μg/mL, MBP: 60 μg/mL). This solution was mixed with an equivalent amount of FCA (Freund Complete Adjuvant, CHEMICON, Cat No. AR001) to thereby prepare an emulsion. Female LEW/CrlCrlj rats (Charles River Laboratories, Japan, Inc., 6-week-old at the time of purchase, 7-week-old at the time of sensitization) were antigen-sensitized by a single subcutaneous injection (0.1 mL/rat) of the emulsion in the right foot pad under slight ether anesthesia, thereby inducing the symptoms of experimental allergic encephalomyelitis. The day of sensitization was defined as Day 0.
The EAE symptoms of the rats were observed every day from Day 8 to Day 20, and were evaluated based on the following criteria: Tail relaxation: 1 point, Incomplete paralysis of hind legs: 1 point, Complete paralysis of hind legs: another 1 point, and Incontinentia: 1 point. The maximum score was 4 points. Death was 5 points.
Using a 0.5% MC solution (0.5 w/v % Methyl Cellulose 400cP Solution, Wako Pure Chemical Industries, Ltd., Cat No. 133-14255) as a vehicle, the test compound was forcibly administered orally in an amount of 5 mL/kg once a day from […] the day of sensitization to Day 19. To a control group, the same amount of 0.5% MC solution was forcibly administered orally once a day for the same period. The body weight was measured every day from Day 0 and the dose was determined based on the body weight of each day.

Series [2] has the same test system. Put plainly: Experimental allergic encephalomyelitis (EAE) model, Case 2: administration from immediately before development of symptoms. It counts as in vivo, Female LEW/CrlCrlj rats. The settings on record: oral dose of 0.3 mg/kg once a day, from Day 9 to Day 19. Here is the method: as §1, with “Mycobacterium tuberculosis:” for “Mycobacteriumtuberculosis:”, “The day of sensitization was defined as Day 0.” left out
The EAE symptoms of the rats were observed every day from Day 7 to Day 20, and evaluated based on the following criteria: Tail relaxation: 1 point, Incomplete paralysis of hind legs: 1 point, Complete paralysis of hind legs: another 1 point, and Incontinentia: 1 point. […]
Using 0.5% MC solution (0.5 w/v % Methyl Cellulose 400cP Solution, Wako Pure Chemical Industries, Ltd., Cat No. 133-14255) as a vehicle, the test compound was forcibly administered orally in an amount of 5 mL/kg once a day from Day 9 […] sensitization to Day 19. […] The body weight was measured every day from Day 9 and the dose was determined based on the body weight of each day.

The mark [3] stands for this setting: oral dose of 0.3 mg/kg once a day.

Structures can show the parent of a compound that is named as a salt.

The text below walks through data of patent US7906549B2, “Aminocarboxylic acid derivative and medicinal use thereof” (Ono Pharmaceutical Co., Ltd., priority 2004, dated 2011).

T1 sequence (P21453 whole entry): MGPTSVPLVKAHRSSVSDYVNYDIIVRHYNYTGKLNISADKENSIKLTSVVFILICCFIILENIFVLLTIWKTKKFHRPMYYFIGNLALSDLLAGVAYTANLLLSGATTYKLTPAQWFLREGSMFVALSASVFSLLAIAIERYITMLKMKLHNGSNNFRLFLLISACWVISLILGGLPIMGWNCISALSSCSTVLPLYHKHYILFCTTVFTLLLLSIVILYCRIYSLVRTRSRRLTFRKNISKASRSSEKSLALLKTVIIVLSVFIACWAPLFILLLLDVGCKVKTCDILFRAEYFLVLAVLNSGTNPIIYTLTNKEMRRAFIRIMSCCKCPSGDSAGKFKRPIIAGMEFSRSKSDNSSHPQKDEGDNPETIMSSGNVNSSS

On to `CC1=C(CN2CC(C(=O)O)C2)CCc2cc(OC[C@@H](C)Cc3ccc(F)cc3)ccc21` [Example 7-4, 1-[(6-{[(2S)-3-(4-fluorophenyl)-2-methylpropyl]oxy}-1-methyl-3,4-dihydro-2-naphthalenyl)methyl]-3-azetidinecarboxylic acid], for which the melting point lay in the range of 142.5 to 143.6 °C. Turning to `CC1=C(CN2CC(C(=O)O)C2)CCc2cc(OCCCc3ccc(Cl)cc3)ccc21` [Example 7-1, 1-({6-[3-(4-chlorophenyl)propoxy]-1-methyl-3,4-dihydro-2-naphthalenyl}methyl)-3-azetidinecarboxylic acid], the melting point is 165.4 to 166.9 °C. On to `CCCc1ccc(COc2ccc3c(c2)CCC(CN2CC(C(=O)O)C2)=C3Cl)c(OC)c1` [Example 37-6, 1-({1-chloro-6-[(2-methoxy-4-propylbenzyl)oxy]-3,4-dihydro-2-naphthalenyl}methyl)-3-azetidinecarboxylic acid], for which the EC50 at Human EDG-1 was found to be 0.7 nM. As to `CCCc1ccc(COc2ccc3c(c2)CCC(CN2CC(C(=O)O)C2)=C3C)c(OC)c1` [Example 37, 1-({6-[(2-methoxy-4-propylbenzyl)oxy]-1-methyl-3,4-dihydro-2-naphthalenyl}methyl)-3-azetidinecarboxylic acid], in the series with heart rate, the “decrease of heart rate” value is reported as at most 20%. In addition, in the series on lymphocyte in blood, the ED50 turned out to be 0.029 mg/kg. Besides, the “inhibition of the development of EAE symptoms” value in series [1] (oral dose of 0.1 mg/kg once a day) was “almost completely inhibited”; in series [1] (setting [3]) it was “completely inhibited”; in series [2] it was “almost completely inhibited”. Also, the EC50 on Human EDG-1 stood at 1 nM. For `CC1=C(CN2CC(C(=O)O)C2)CCc2cc(OCc3ccc(C(F)(F)F)cc3C(F)(F)F)ccc21` [Example 37-5, 1-[(6-{[2,4-bis(trifluoromethyl)benzyl]oxy}-1-methyl-3,4-dihydro-2-naphthalenyl)methyl]-3-azetidinecarboxylic acid], the “inhibition of the development of EAE symptoms” value is reported as “almost completely inhibited” in series [1] (setting [3]) and “had the effect of inhibiting the development of symptoms” in series [2].

The compound `CC1=C(CN2CC(C(=O)O)C2)CCc2cc(OC[C@@H](C)Cc3ccc(Cl)cc3)ccc21` [Example 7-10, 1-[(6-{[(2S)-3-(4-chlorophenyl)-2-methylpropyl]oxy}-1-methyl-3,4-dihydro-2-naphthalenyl)methyl]-3-azetidinecarboxylic acid] displayed a melting point of 148.6 to 148.9 °C. Consider `O=C(O)CCN1CC=C(c2ccc(OCCCc3ccc(Cl)cc3)cc2)CC1` [Example 29-1, 3-[4-{4-[3-(4-chlorophenyl)propoxy]phenyl}-3,6-dihydropyridin-1(2H)-yl]propanoic acid trifluoroacetate], for which, on Human EDG-1, the EC50 turned out to be 133 nM.

On to `O=C(O)CCN1CCc2c([nH]c3cc(OCCCc4ccccc4)ccc23)C1` [Example 18, 3-[7-(3-phenylpropoxy)-1,3,4,9-tetrahydro-2H-β-carbolin-2-yl]propanoic acid trifluoroacetate], for which the EC50 on Human EDG-1 was determined as 662 nM. Regarding `O=C(O)C1CN(CC2=C(Cl)c3ccc(OCCCC4CCCCC4)cc3CC2)C1` [Example 27-7, 1-{[1-chloro-6-(3-cyclohexylpropoxy)-3,4-dihydronaphthalen-2-yl]methyl}azetidine-3-carboxylic acid], in the series on lymphocyte in blood, the ED50 was found to be 1.6 mg/kg. On Human EDG-1, the EC50 is 0.7 nM. For `CC(C)Cc1ccc(-c2nc(-c3ccc4c(c3)CCN(CCC(=O)O)C4)no2)cc1` [Example 13-4, 3-[6-[5-(4-isobutylphenyl)-1,2,4-oxadiazol-3-yl]-3,4-dihydro-2(1H)-isoquinolinyl]propanoic acid trifluoroacetate], the EC50 on Human EDG-1 was 41 nM.

As usually defined, the melting point is the temperature of the solid-liquid transition. What is called ED50 is the dose at which the effect has come halfway, by size or by number of responders.
